Assay results published in US10173968B2, “Bishydrazone-based antifungal agents” (University of Kentucky Research Foundation, priority 2016, dated 2019).
Several values for one entry are separate records, joined by “and”; a condition that tells them apart may be missing. Equal entries are not always repeated. Where two headings read alike, the source gives them in different places.

Columns and labels:
[1] = test system: M. smegmatis MC2-155; test: Antibacterial MIC, double-dilution method; assay type: cell-based; conditions: Mycolicibacterium smegmatis, MC2155, strain K, mycobacterial, read-out: MIC
Experimental: (§1) MIC values were determined against a variety of Gram-positive (strains A-D) and Gram-negative (E-J) bacterial and mycobacterial (K) strains using the double-dilution method, as previously published. Preliminary screening was performed using 500 μM of each compound.

[2] = test system: E. cloacae ATCC 13047; test: Antibacterial MIC, double-dilution method; assay type: cell-based; conditions: Enterobacter cloacae, ATCC13047
Experimental: as §1

[3] = test system: A. baumannii ATCC 19606; test: Antibacterial MIC, double-dilution method; assay type: cell-based; conditions: Acinetobacter baumannii, ATCC19606
Experimental: as §1

[4] = test system: VRE; test: Antibacterial MIC, double-dilution method; assay type: cell-based; conditions: Enterococcus
Experimental: as §1

[5] = test system: MRSA; test: Antibacterial MIC, double-dilution method; assay type: cell-based; conditions: Staphylococcus aureus
Experimental: as §1

[6] = test system: S. enterica ATCC 14028; test: Antibacterial MIC, double-dilution method; assay type: cell-based; conditions: Salmonella enterica, ATCC14028
Experimental: as §1

[7] = test system: L. monocytogenes ATCC 19115; test: Antibacterial MIC, double-dilution method; assay type: cell-based; conditions: Listeria monocytogenes, ATCC19115
Experimental: as §1

[8] = test system: B. subtilis 168; test: Antibacterial MIC, double-dilution method; assay type: cell-based; conditions: Bacillus subtilis, strain A, Gram-positive
Experimental: as §1

[9] = test system: K. pneumoniae ATCC 27736; test: Antibacterial MIC, double-dilution method; assay type: cell-based; conditions: Klebsiella pneumoniae, ATCC27736, strain H, Gram-negative, read-out: MIC
Experimental: as §1

[10] = test system: E. coli MC1061; test: Antibacterial MIC, double-dilution method; assay type: cell-based; conditions: Escherichia coli
Experimental: as §1

[11] = test system: P. aeruginosa ATCC 27853; test: Antibacterial MIC, double-dilution method; assay type: cell-based; conditions: Pseudomonas aeruginosa, ATCC27853, strain I, Gram-negative, read-out: MIC
Experimental: as §1

[12] = test system: C. albicans ATCC 64124; test: Antifungal MIC, CLSI M27-A3 microbroth dilution; assay type: cell-based, Candida albicans; conditions: Candida albicans, ATCC64124, C. albicans ATCC 64124, resistant to FLC, ITC, and VOR, read-out: MIC
Experimental: (§2) In vitro MIC testing was performed according to the CLSI M27-A3 standard microbroth dilution methodology for the susceptibility testing of yeasts with minor modifications.

[13] = test system: C. albicans ATCC 2876; test: Antifungal MIC, CLSI M27-A3 microbroth dilution; assay type: cell-based, Candida albicans; conditions: Candida albicans, ATCC2876, C. albicans ATCC 2876, susceptible to FLC, ITC, and VOR, read-out: MIC
Experimental: as §2

[14] = test system: C. albicans ATCC 90819; test: Antifungal MIC, CLSI M27-A3 microbroth dilution; assay type: cell-based, Candida albicans; conditions: Candida albicans, ATCC90819, C. albicans ATCC 90819, resistant to FLC, ITC, and VOR, read-out: MIC
Experimental: as §2

[15] = test system: C. albicans ATCC 10231; test: Antifungal MIC, CLSI M27-A3 microbroth dilution; assay type: cell-based, Candida albicans; conditions: Candida albicans, ATCC10231, C. albicans ATCC 10231, resistant to FLC, ITC, and VOR, read-out: MIC
Experimental: as §2

[16] = test system: C. albicans ATCC 1237; test: Antifungal MIC, CLSI M27-A3 microbroth dilution; assay type: cell-based, Candida albicans; conditions: ITC, and VOR
Experimental: as §2

[17] = test system: C. albicans ATCC 2310; test: Antifungal MIC, CLSI M27-A3 microbroth dilution; assay type: cell-based, Candida albicans; conditions: Candida albicans, ATCC2310, C. albicans ATCC 2310, susceptible to FLC, ITC, and VOR, read-out: MIC
Experimental: as §2

[18] = test system: C. albicans ATCC 1003; test: Antifungal MIC, CLSI M27-A3 microbroth dilution; assay type: cell-based, Candida albicans; conditions: Candida albicans, ATCC1003, read-out: MIC
Experimental: as §2

[19] = test system: C. albicans strains (panel of seven); test: Antifungal MIC, summary over the panel; assay type: cell-based, Candida albicans; conditions: Candida albicans; all, most or majority of the fungal strains; read-out: MIC, span over C. albicans strains
Experimental: In vitro MIC testing was performed according to the CLSI M27-A3 standard microbroth dilution methodology for the susceptibility testing of yeasts with minor modifications. […] MIC values were read visually for all tested compounds, and the endpoint was determined as the minimum concentration of compound that yielded complete inhibition relative to growth control.

[20] = strain F, Gram-negative, converted from μM, read-out: MIC
[21] = strain F, Gram-negative, range 0.5 to 500 μM, read-out: MIC
[22] = strain E, Gram-negative, converted from μM, read-out: MIC
[23] = strain E, Gram-negative, range 0.5 to 500 μM, read-out: MIC
[24] = strain D, Gram-positive, converted from μM, read-out: MIC
[25] = strain D, Gram-positive, range 0.5 to 500 μM, read-out: MIC
[26] = strain C, Gram-positive, converted from μM, read-out: MIC
[27] = strain C, Gram-positive, range 0.5 to 500 μM, read-out: MIC
[28] = strain J, Gram-negative, converted from μM, read-out: MIC
[29] = strain J, Gram-negative, range 0.5 to 500 μM, read-out: MIC
[30] = strain B, Gram-positive, converted from μM, read-out: MIC
[31] = strain B, Gram-positive, range 0.5 to 500 μM, read-out: MIC
[32] = strain G, Gram-negative, converted from μM, read-out: MIC
[33] = strain G, Gram-negative, range 0.5 to 500 μM, read-out: MIC
[34] = Candida albicans, ATCC1237, C. albicans ATCC 1237, resistant to FLC, converted from μg/mL, read-out: MIC
[35] = Candida albicans, ATCC1237, C. albicans ATCC 1237, resistant to FLC, read-out: MIC
[36] = C. albicans ATCC 1003, converted from μg/mL

SMILES	MIC [3, 23]	MIC [4, 25]	MIC [5, 27]	MIC [6, 29]	MIC [7, 31]	MIC ([8]; converted from μM)	MIC ([8]; range 0.5 to 500 μM)	MIC ([9]; converted from μM)	MIC ([9]; range 0.5 to 500 μM)	MIC ([12]; converted from μg/mL)	MIC [12]	MIC ([13]; converted from μg/mL)	MIC [13]	MIC ([14]; converted from μg/mL)	MIC [14]	MIC ([15]; converted from μg/mL)	MIC [15]	MIC [16, 34]	MIC [16, 35]	MIC ([17]; converted from μg/mL)	also measured
C/C(=N\NC(=N)N)c1ccc(Cc2ccc(/C(C)=N/NC(=N)N)cc2)cc1.Cl.Cl [Compound 4C, (2E,2′E)-2,2′-((methylenebis(4,1-phenylene))bis(ethan-1-yl-1-ylidene))bis(hydrazine-1-carboximidamide) dihydrochloride]	> 500 µM	2 µM	3.9 µM	> 500 µM	3.9 µM	> 219 µg/mL	> 500 µM	> 219 µg/mL	> 500 µM	17.8 µM	7.8 µg/mL	8.9 µM	3.9 µg/mL	17.8 µM	7.8 µg/mL	17.8 µM	7.8 µg/mL	17.8 µM	7.8 µg/mL	17.8 µM	MIC ([1]; converted from μM): 0.9 µg/mL; MIC ([1]; range 0.5 to 500 μM): 2 µM; MIC [2, 20]: > 219 µg/mL; MIC [2, 21]: > 500 µM; MIC [3, 22]: > 219 µg/mL; MIC [4, 24]: 0.9 µg/mL; MIC [5, 26]: 1.7 µg/mL; MIC [6, 28]: > 219 µg/mL; MIC [7, 30]: 1.7 µg/mL; MIC [10, 32]: > 219 µg/mL; MIC [10, 33]: > 500 µM; MIC ([11]; converted from μM): > 219 µg/mL; MIC ([11]; range 0.5 to 500 μM): > 500 µM; melting point: 342 to 344 °C; MIC [17]: 7.8 µg/mL; MIC [18, 36]: 17.8 µM; MIC [18]: 7.8 µg/mL
C/C(=N\NC(=N)N)c1ccc(-c2ccc(/C(C)=N/NC(=N)N)cc2)cc1.Cl.Cl [Compound 4A, (2E,2′E)-2,2′-([1,1′-Biphenyl]-4,4′-diylbis(ethan-1-yl-1-ylidene))bis(hydrazine-1-carboximidamide) dihydrochloride]	> 500 µM	> 500 µM	> 500 µM	> 500 µM	> 500 µM	> 212 µg/mL	> 500 µM	6.6 µg/mL	15.6 µM	4.7 µM	2 µg/mL	4.7 µM	2 µg/mL	9.2 µM	3.9 µg/mL	4.7 to 9.2 µM	2 to 3.9 µg/mL	> 73.9 µM	31.3 µg/mL	9.2 µM	MIC ([1]; converted from μM): > 212 µg/mL; MIC ([1]; range 0.5 to 500 μM): > 500 µM; MIC [2, 20]: 52.9 µg/mL; MIC [2, 21]: 125 µM; MIC [3]: > 212 µg/mL; MIC [4]: > 212 µg/mL; MIC [5]: > 212 µg/mL; MIC [6]: > 212 µg/mL; MIC [7]: > 212 µg/mL; MIC [10, 32]: 26.5 µg/mL; MIC [10, 33]: 62.5 µM; MIC ([11]; converted from μM): 0.8 µg/mL; MIC ([11]; range 0.5 to 500 μM): 2 µM; MIC [19]: 2 to 3.9 µg/mL; MIC ([16]; C. albicans ATCC 1237, resistant to FLC, dihydrochloride): >31.3 µg/mL; MIC [17]: 3.9 µg/mL; MIC [18, 36]: 18.4 µM; MIC [18]: 7.8 µg/mL
C/C(=N\NC(=N)N)c1ccc(-c2ccc(/C(C)=N/Nc3ccccc3Cl)cc2)cc1.Cl [Compound 8Aa, (E)-2-(1-(4′-((E)-1-(2-(2-chlorophenyl)hydrazono)ethyl)-[1,1′-biphenyl]-4-yl)ethylidene)hydrazine-1-carboximidamide hydrochloride]	62.5 µM	3.9 µM	125 µM	62.5 to 125 µM	62.5 to 125 µM	26.6 to 53.3 µg/mL	62.5 to 125 µM	26.6 to 53.3 µg/mL	62.5 to 125 µM	68.7 µM	31.3 µg/mL	34.3 µM	15.6 µg/mL	34.3 µM	15.6 µg/mL	34.3 µM	15.6 µg/mL	34.3 µM	15.6 µg/mL	34.3 µM	MIC [3, 22]: 26.6 µg/mL; MIC [4, 24]: 1.7 µg/mL; MIC [5, 26]: 53.3 µg/mL; MIC [6, 28]: 26.3 to 53.3 µg/mL; MIC [7, 30]: 26.6 to 53.3 µg/mL; MIC [10]: 213 µg/mL and 500 µM; melting point: > 380 °C; MIC [19]: 7.8 to 15.6 µg/mL; MIC [17]: 15.6 µg/mL; MIC [18, 36]: 34.3 µM; MIC [18]: 15.6 µg/mL
C/C(=N\NC(=N)N)c1ccc(/C(C)=N/NC(=N)N)cc1.Cl.Cl [Compound 4G, (2E,2′E)-2,2′-(1,4-Phenylenebis(ethan-1-yl-1-ylidene))bis(hydrazine-1-carboximidamide) dihydrochloride]	500 µM	125 µM	> 500 µM	250 to 500 µM	250 µM	86.8 µg/mL	250 µM	173 µg/mL	500 µM	90.1 µM	31.3 µg/mL	> 90.1 µM	> 31.3 µg/mL	> 90.1 µM	> 31.3 µg/mL	> 90.1 µM	> 31.3 µg/mL	> 90.1 µM	> 31.3 µg/mL	> 90.1 µM	MIC ([1]; converted from μM): > 173 µg/mL; MIC ([1]; range 0.5 to 500 μM): > 500 µM; MIC [2]: > 173 µg/mL; MIC [2, 21]: > 500 µM; MIC [3, 22]: 173 µg/mL; MIC [4, 24]: 43.4 µg/mL; MIC [5]: > 173 µg/mL; MIC [6, 28]: 86.8 to 173 µg/mL; MIC [7, 30]: 86.8 µg/mL; MIC [10, 32]: > 173 µg/mL; MIC [10, 33]: > 500 µM; MIC ([11]; converted from μM): 86.8 µg/mL; MIC ([11]; range 0.5 to 500 μM): 250 µM; MIC [17]: > 31.3 µg/mL; MIC [18, 36]: > 90.1 µM; MIC [18]: > 31.3 µg/mL
